Assay results reported in US10464957B2, “Oxidized lipids and methods of use thereof” (Vascular Biogenics Ltd., priority 2014, dated 2019).

Columns and labels:
[1] = system: kidney of nephrectomized rats; test: Real-time PCR of pro-fibrotic markers in kidney of nephrectomized rats; assay type: in vivo, Sprague Dawley (SD) Rats
Method: Kidney RNA was extracted with an RNeasy Fibrous Tissue Mini kit (Qiagen) and after DNAse I treatment, single-stranded cDNA was synthesized from 2 μg total RNA using the qScript cDNA Synthesis Kit (Quanta Biosciences) and diluted for real-time PCR. The expression of collagen 4α, fibronectin and TGFβ was quantified using the 7300 Real Time PCR System (Applied Biosystems). The assay was performed according to manufacturer instructions using the primers (Assay ID) represented at the table below supplied by Applied Biosystems. Data were normalized to the reference gene TATA box Binding Protein (TBP) and presented as relative mRNA levels compared with Sham PBS 0.5% Eth treatment (Table 1).

[2] = system: livers taken from NASH-induced mice; test: Q-PCR of inflammation mediators in livers of NASH-induced mice; assay type: in vivo; conditions: VB-703 4 mg/kg, Q-PCR normalized to GAPDH
Method: Neonatal male mice exposed to low-dose streptozotocin (STZ) develop liver steatosis with diabetes. Continuous high fat diet (HFD) increases lobular inflammation with foam cell-like macrophages, showing nonalcoholic steatohepatitis (NASH) pathology. NASH was induced in 40 male mice by a single subcutaneous injection of 200 μg per mouse of STZ two days after birth and feeding HFD [57 kcal % fat]) from four weeks of age. Vehicle, VB-703 (4 mg/kg), or telmisartan (10 mg/kg) as positive control, were administered once daily for three weeks, starting from six weeks of age. Mice were sacrificed at nine weeks of age.
RNA was prepared from livers from normal mice and NASH-induced mice treated with vehicle, VB-703, or telmisartan, using RNeasy mini kit (Qiagen). For cDNA preparation, 2 μg of RNA was combined with qScript reaction mix and qScript Reverse Transcriptase (Quanta BioSciences) for 5 min at 22° C. and then for 30 min at 42° C. Reaction was ended by incubation for an additional 5 min at 85° C. All real time PCR reactions were performed using the 7300 Real Time PCR System (Applied Biosystems). Q-PCR with mouse ready set of probe with primer was used for IL-1β, IL-12/23p40 and MCP-1 (Applied Biosystems). GAPDH was used to normalize RNA levels.

[3] = system: Pam3CSK4 (TLR2)-stimulated human monocytes (primary CD14+); test: IL-12/23p40 ELISA, Pam3CSK4 (TLR2)-stimulated monocytes; assay type: cell-based; conditions: 1 hour pretreatment, 24 hour 300 ng/ml Pam3CSK4, ELISA of supernatant
Method: Human monocytes were obtained as described in Example 9 and FIG. 9A-9B. Human monocytes were seeded (10^6/ml) and pretreated for 1 hour with VB-201, VB-701 or VB-702, followed by 24 hour activation with 100 ng/ml LPS from Escherichia coli strain 055:B5 (Sigma, Israel) (FIG. 9A) or 300 ng/ml Pam3CSK4 (InvivoGen, San Diego, Calif., USA) (FIG. 9B) to induce cytokine production. IL-12/23p40 concentration in the supernatant was then measured by ELISA (R&D systems, Cat. No. DY1240). Cells activated with solvent (0.5% ethanol in PBS) were used as a control.

[4] = compared to Nx PBS 0.5% Eth treatment, VB-703 4 mg/kg, telmisartan 10 mg/kg
[5] = normalized to TBP, relative to Sham PBS 0.5% Eth, mean±SEM

SMILES	reduction of Collagen IV expression [1, 4] [%]	reduction of TGF-β expression [1, 4] [%]	reduction of fibronectin expression [1, 4] [%]	Collagen IV mRNA expression (relative mRNA level) [1, 5]	TGF-β mRNA expression (relative mRNA level) [1, 5]	fibronectin mRNA expression (relative mRNA level) [1, 5]	expression of IL-10 in livers [2]	expression of IL-12/23p40 in livers [2]	expression of the chemokine MCP-1 in livers [2]	IL-12p40 levels, Pam3CSK4 (TLR2)-stimulated [3]
CCCCCCCCCCC(CCCCCCCC)COC[C@H](COP(=O)([O-])OCC[n+]1ccccc1)OCCCCC(=O)O (stereo partly drawn) [VB-703, (R)-1-(2′-octyl)dodecyl-2-(4′-carboxy)butyl-sn-glycero-3-phosphoric acid pyridiniumethyl ester]	51	42	47	3.7±0.52	4.8±0.32	6.7±0.98	significantly inhibited	significantly inhibited	significantly inhibited	
CCCCCCCCCCCCCCCCOCC(COP(=O)([O-])OCC[N+](C)(C)C)OCCCCC(=O)O (stereo not shown) [VB-201, 1-hexadecyl-2-(4′-carboxy)butyl-glycero-3-phosphocholine, reference compound]										inhibit
